Here are results for 19 compounds from patent US9422307B2, “2,4,7-substituted thieno[3,2-d]pyrimidine compounds as protein kinase inhibitors” (KOREA INSTITUTE OF SCIENCE AND TECHNOLOGY, priority 2009, dated 2016).

Series [1] deals with Full sequence FAK (Homo sapiens (Human), UniProt Q05397). The series is described as follows: Measurement of FAK kinase activity (ULight-LANCE assay). In kind it is biochemical. The note with it: TR-FRET, 3 nM FAK, 10 μM ATP; read-out: FAK inhibition activity (IC50). As for the experimental part:
ULight-poly GT (PerkinElmer #TRF0100-D), Eu-anti-phospho-Tyr (PT66) (PerkinElmer #AD0068) and Lance detection buffer (PerkinElmer #CR-97-100) were purchased from PerkinElmer. […] 4× ULight-poly GT was adjusted to a final concentration of 100 nM. ATP (Sigma #A2383) was adjusted to a final concentration of 10 μM and in 2.5 μL aliquots. The test compound was sequentially diluted at 12 concentrations and treated with an amount of 0.5 μL. After shaking well and allowing to react at room temperature for 60 minutes, 5 μL of ethylenediaminetetraacetic acid (EDTA, final concentration 40 mM) diluted in Lance detection buffer (Lance detection buffer) was added and the mixture was left at room temperature for 5 minutes to stop the reaction. After adding 4× Eu-anti-phospho-Tyr (PT66) phosphorylated antibody diluted to a final concentration of 2 nM in detection buffer with an amount of 5 μL, and reaction was performed at room temperature for 60 minutes.
A general note: Time-resolved FRET reads energy transfer from a long-lived donor to a nearby acceptor.

Series [2] concerns HT-29 human colon adenocarcinoma cells. As to the kind of experiment: Inhibition of proliferation of HT-29 human colon adenocarcinoma cells (MTT assay). In kind it is cell-based. The note with it: HT-29 cells, read-out: Inhibition activity against proliferation of the HT-29 cells (GI50). As for the experimental part:
HT-29 human colon adenocarcinoma cells were cultured in DMEM [10% FBS, 1% penicillin/streptomycin] at 37° C. in the presence of 5% CO2. The cultured HT-29 cells were harvested with 0.05% trypsin-0.02% EDTA and seeded in a 96-well plate at 5×10^3 cells per well.
3-(4,5-Dimethylthiazol-2-yl)-2,5-diphenyltetrazolium bromide (MTT) assay (CellTiter 96 Assay, Promega) was used to measure cell viability. After adding 15 μL of a dye per well and culturing for 2 hours, the cells were treated with 100 μL of a stop solution and absorbance was measured 24 hours later. The test compound was treated a day after plating. The test compound had been sequentially diluted at 12 concentrations from a 10 mM stock solution using sterilized dimethylsulfoxide (DMSO) and treated with an amount of 0.5 μL. Absorbance at 590 nm was recorded using EnVision2103, and GI50 value was calculated using GraphPad Prism 4.0 software.
On the technique in general: Tetrazolium dyes change colour on reduction, which living cells bring about.

The subject of series [3] is prostate cancer PC-3, breast cancer BT-474, colon LoVo, lung cancer NCI-H460, glioblastoma U-87 MG and pancreatic cancer BxPC-3 cells. As to conditions: cited from earlier work.
The test system of series [4] is tumor. The note with it: concurrent administration with docetaxel, animal model, P values<0.01; cited from earlier work.

Chain of Full sequence FAK (Q05397 whole entry): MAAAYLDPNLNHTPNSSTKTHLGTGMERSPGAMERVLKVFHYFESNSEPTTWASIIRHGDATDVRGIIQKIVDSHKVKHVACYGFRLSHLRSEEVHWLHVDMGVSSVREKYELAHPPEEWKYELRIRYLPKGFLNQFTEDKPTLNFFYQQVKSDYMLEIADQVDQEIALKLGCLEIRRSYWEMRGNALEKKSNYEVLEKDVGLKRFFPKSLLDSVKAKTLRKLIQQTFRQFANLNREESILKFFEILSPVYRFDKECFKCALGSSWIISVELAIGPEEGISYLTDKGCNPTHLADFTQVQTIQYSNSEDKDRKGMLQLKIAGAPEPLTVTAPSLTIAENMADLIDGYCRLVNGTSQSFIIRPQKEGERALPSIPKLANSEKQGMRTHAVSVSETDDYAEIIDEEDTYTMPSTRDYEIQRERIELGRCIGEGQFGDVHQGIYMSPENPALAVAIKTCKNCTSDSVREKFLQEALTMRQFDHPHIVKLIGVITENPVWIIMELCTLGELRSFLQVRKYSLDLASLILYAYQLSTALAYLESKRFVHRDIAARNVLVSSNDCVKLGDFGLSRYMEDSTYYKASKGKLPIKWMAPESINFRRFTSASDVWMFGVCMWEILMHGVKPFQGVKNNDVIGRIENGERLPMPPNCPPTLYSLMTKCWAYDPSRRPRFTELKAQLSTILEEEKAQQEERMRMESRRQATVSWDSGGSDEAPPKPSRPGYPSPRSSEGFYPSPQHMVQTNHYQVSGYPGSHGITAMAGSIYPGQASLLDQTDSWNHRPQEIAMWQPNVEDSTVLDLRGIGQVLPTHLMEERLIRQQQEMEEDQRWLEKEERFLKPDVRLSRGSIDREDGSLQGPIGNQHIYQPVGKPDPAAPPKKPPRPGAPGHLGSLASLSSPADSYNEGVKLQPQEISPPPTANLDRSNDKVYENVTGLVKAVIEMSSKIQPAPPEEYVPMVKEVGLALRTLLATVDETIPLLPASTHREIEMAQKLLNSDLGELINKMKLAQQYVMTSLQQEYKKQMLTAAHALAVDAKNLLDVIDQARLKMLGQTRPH

In the case of `CNC(=O)c1cccc(-c2csc3c(N)nc(Nc4ccc(N5CCOCC5)nc4)nc23)c1` [Example 2, 3-(4-amino-2-(6-morpholinopyridin-3-ylamino)thieno[3,2-d]pyrimidin-7-yl)-N-methylbenzamide], the concentration for half-maximal inhibition (IC50) in series [1] was below 10 µM. The GI50 in series [2] was below 10 µM.
Turning to `CNC(=O)c1cccc(-c2csc3c(N)nc(Nc4ccc(N5CCC(O)CC5)cc4)nc23)c1` [Example 3, 3-(4-amino-2-(4-(4-hydroxypiperidin-1-yl)phenylamino)thieno[3,2-d]pyrimidin-7-yl)-N-methylbenzamide], in series [1], the IC50 is below 10 µM. Moreover, the GI50 in series [2] was below 10 µM.
Take `CCN1CCN(c2ccc(Nc3nc(N)c4scc(-c5cccc(C(=O)NC)c5)c4n3)cc2)CC1` [Example 6, 3-(4-amino-2-(4-(4-ethylpiperazin-1-yl)phenylamino)thieno[3,2-d]pyrimidin-7-yl)-N-methylbenzamide]: the IC50 in series [1] is below 10 µM. For the same compound, the GI50 in series [2] was below 10 µM.
For `CNC(=O)c1cccc(-c2csc3c(N)nc(Nc4ccc(N5CCC(N6CCCC6)CC5)cc4)nc23)c1` [Example 7, 3-(4-amino-2-(4-(4-(pyrrolidin-1-yl)piperidin-1-yl)phenylamino)thieno[3,2-d]pyrimidin-7-yl)-N-methylbenzamide], in series [1], the IC50 was below 10 µM. Further, the GI50 in series [2] is below 10 µM.
Take `COc1cc(Nc2nc(N)c3scc(-c4cccc(NC(=O)C5CC5)c4)c3n2)cc(OC)c1OC` [Example 15, N-(3-(4-amino-2-(3,4,5-trimethoxyphenylamino)thieno[3,2-d]pyrimidin-7-yl)phenyl)cyclopropanecarboxamide]: the 50% inhibitory concentration (IC50) in series [1] was below 10 µM. In addition, the GI50 in series [2] was below 10 µM.
`CCS(=O)(=O)Nc1cccc(-c2csc3c(N)nc(Nc4cc(OC)c(OC)c(OC)c4)nc23)c1` [Example 17, N-(3-(4-amino-2-(3,4,5-trimethoxyphenylamino)thieno[3,2-d]pyrimidin-7-yl)phenyl)ethanesulfonamide]: in series [1], the IC50 is below 10 µM. For the same compound, in series [2], the GI50 is below 10 µM.
Take `CNS(=O)(=O)c1cccc(-c2csc3c(N)nc(Nc4cc(OC)c(OC)c(OC)c4)nc23)c1` [Example 26, 3-(4-amino-2-(3,4,5-trimethoxyphenylamino)thieno[3,2-d]pyrimidin-7-yl)-N-methylbenzenesulfonamide]: in series [1], the IC50 is below 10 µM. The GI50 in series [2] is below 10 µM.
For `CCN1CCN(c2ccc(Nc3nc(N)c4scc(-c5cccc(NS(C)(=O)=O)c5)c4n3)cn2)CC1` [Example 27, N-(3-(4-amino-2-(6-(4-ethylpiperazin-1-yl)pyridin-3-ylamino)thieno[3,2-d]pyrimidin-7-yl)phenyl)methanesulfonamide], the IC50 in series [1] was below 10 µM. Moreover, the GI50 in series [2] is below 10 µM.
Consider `CCN1CCN(c2ccc(Nc3nc(N)c4scc(-c5cnc6ccccc6c5)c4n3)cn2)CC1` [Example 39, N^2-(6-(4-ethylpiperazin-1-yl)pyridin-3-yl)-7-(quinolin-3-yl)thieno[3,2-d]pyrimidin-2,4-diamine], for which the IC50 in series [1] is below 10 µM. Also, the GI50 in series [2] was below 10 µM.
Turning to `CCN1CCN(c2ccc(Nc3nc(N)c4scc(-c5cnc6ccccc6c5)c4n3)cc2)CC1` [Example 41, N^2-(4-(4-ethylpiperazin-1-yl)phenyl)-7-(quinolin-3-yl)thieno[3,2-d]pyrimidin-2,4-amine], in series [1], the IC50 is below 10 µM. The GI50 in series [2] was below 10 µM.
Take `Nc1nc(Nc2ccc(N3CCOCC3)nc2)nc2c(-c3cnc4ccccc4c3)csc12` [Example 42, N^2-(6-morpholinopyridin-3-yl)-7-(quinolin-3-yl)thieno[3,2-d]pyrimidin-2,4-diamine]: the IC50 in series [1] is below 10 µM. Also, the GI50 in series [2] is below 10 µM.
As for `CCN1CCN(c2cccc(Nc3nc(N)c4scc(-c5cnc6ccccc6c5)c4n3)c2)CC1` [Example 43, N^2-(3-(4-ethylpiperazin-1-yl)phenyl)-7-(quinolin-3-yl)thieno[3,2-d]pyrimidin-2,4-diamine], the IC50 in series [1] was below 10 µM. Further, the GI50 in series [2] is below 10 µM.
As for `C#Cc1csc2c(NCc3ccccc3)nc(NC[C@H](C)O)nc12` [Example 44, (S)-1-(4-(benzylamino)-7-ethynylthieno[3,2-d]pyrimidin-2-ylamino)propan-2-ol], the GI50 in series [2] is below 10 µM.
Turning to `C#Cc1csc2c(N[C@H](C)c3ccccc3)nc(NC[C@H](C)O)nc12` [Example 45, (S)-1-(7-ethynyl-4-((R)-1-phenylethylamino)thieno[3,2-d]pyrimidin-2-ylamino)propan-2-ol], the IC50 in series [1] is below 10 µM. For the same compound, the GI50 in series [2] was below 10 µM.
Turning to `C=Cc1csc2c(NCc3ccccc3)nc(NCCN3CCOCC3)nc12` [Example 46, N^4-benzyl-N^2-(2-morpholinoethyl)-7-vinylthieno[3,2-d]pyrimidin-2,4-diamine], in series [1], the half-inhibitory concentration (IC50) is below 10 µM. In addition, the GI50 in series [2] is below 10 µM.
For `C=Cc1csc2c(N[C@H](C)c3ccccc3)nc(NCCN3CCOCC3)nc12` [Example 47, (R)—N^2-(2-morpholinoethyl)-N^4-(1-phenylethyl)-7-vinylthieno[3,2-d]pyrimidin-2,4-diamine], in series [1], the IC50 was below 10 µM. The GI50 in series [2] is below 10 µM.
In the case of `CCc1csc2c(NCc3ccccc3)nc(NCCN3CCOCC3)nc12` [Example 48, N^4-benzyl-7-ethyl-N^2-(2-morpholinoethyl)thieno[3,2-d]pyrimidin-2,4-diamine], the half-inhibitory concentration (IC50) in series [1] was below 10 µM. Besides, in series [2], the GI50 was below 10 µM.
For the compound `CN(c1ncccc1CNc1nc(Nc2ccc3c(c2)CC(=O)N3)ncc1C(F)(F)F)S(C)(=O)=O` [PF-562271], the “inhibition of tumor growth or tumor degeneration” value in series [3] (human tumor xenograft, 25-100 mg/kg p.o.) was 42-90%. In addition, the toxicity observed result in series [3] (in vivo) was “No special toxicity has been observed”.
For `CNC(=O)c1ccccc1Nc1nc(Nc2ccc(N3CCOCC3)cc2OC)ncc1Cl` [TAE226], in series [4], the tumor reduction is reported as 85-97%.

Broadly, the IC50 is the point on the concentration scale where inhibition reaches its midpoint.
